Reference: paper PMC8861431, “Tissue Pharmacokinetic Properties and Bystander Potential of Hypoxia-Activated Prodrug CP-506 by Agent-Based Modelling” (Frontiers in Pharmacology, 2022)
Where “and” joins values, the source holds several entries; their conditions need not be identical. Identical values can stand only once.

Key:
HCT-116 cell line panel = assay: Anti-proliferative IC50 assay of authentic CP-506 metabolites; format: cell-based, human; conditions: Homo sapiens, HCT-116, 120 h, read-out: Anti-proliferative IC50 of metabolite
Experimental: Cells (700–1,000 per well) were seeded with 100 µl culture medium into 96-well plates and left to attach for 2 h in a humidified 37°C incubator. Compounds were prepared in culture medium and serially diluted (1:3) in the well volume. […] Aerobic experiments were performed under standard tissue culture conditions (21% O2), and the anoxic experiments were performed in parallel in a 5% H2/Pd catalyst anaerobic chamber (Shellab Bactron, Sheldon manufacturing Inc., Cornelius, OR) using pre-equilibrated media and plasticware. All anoxia experiments were conducted using a catalyst-scrubbed anaerobic chamber, unless otherwise specified, with gas oxygen measurements of <1 ppm O2. Cells were then washed three times and left to grow for 96 h before cell density determination using a sulforhodamine B (SRB) assay ([Vichai and Kirtikara, 2006]). To this end, the cells were fixed by layering 50 µl of trichloroacetic acid (40% w/v in MilliQ water) on top of the culture media (150 µl) in each well for 1 h at 4°C. Plates were rinsed under running tap water and stained with 50 µl of SRB (0.4% w/v in MilliQ water containing 1% v/v acetic acid) for 30 min at room temperature. Plates were rapidly destained by rinsing three times in tap water containing 1% (v/v) acetic acid. The stain was solubilized by adding 100 µl of 10 mM unbuffered Tris base to each well with gentle rocking for 1 h. Plates were read on a Biotek ELx808 Absorbance Microplate Reader at 490 nm using KC4 software. The IC50 value (concentration required to reduce staining to 50% of the untreated control on the same plate) for each compound was determined by interpolation using a 4-parameter logistic regression model.
FIGURE 3 Hypoxia-dependent metabolism of CP-506 leads to the formation of a multitude of short-lived species with variable cytotoxicity. (A) Bioreductive metabolism of CP-506 under normoxic (21% O2) and anoxic conditions (<1 ppm O2). Concentrations of CP-506 and its metabolites (CP-506H, CP-506M and CP-506M-Cl2) were quantified by mass spectrometry with reference to the appropriate deuterated (D8) internal standard. Values are the mean ± SEM for three independent experiments. (B) Stability of CP-506 metabolites in culture medium (without cells) at 37°C. Concentrations were determined by mass spectrometry using standard curves generated from authenticated stocks. […] IC50 values are the mean ± SEM of duplicate wells for three independent experiments. T-tests were performed using GraphPad Prism 8 (ns, p-value > 0.05; *, p-value ≤ 0.05; **, p-value ≤ 0.01; ***, p-value ≤ 0.001).

[1] = test system: PORko-G and POR-R spheroids / spheroid co-cultures; assay: Spheroid clonogenic survival assay (with spheroid ABM fit); format: cell-based, human; conditions: for k d S: kill probability rate constant in spheroid cultures: fitted by spheroid ABM to clonogenic survival under anoxia, set to zero for the prodrug, same kd assumed for metabolites
Experimental: Spheroid cultures were established by seeding 3 x 10^3 cells with 100 µl medium into ultra-low attachment, round bottom 96-well plates (Corning Inc, Corning, NY). Plates were briefly centrifuged (200 g, 5 min) to facilitate cell aggregation and grown in a standard incubator (37°C, 21% O2, 5% CO2) for 4 days before experiments. The culture medium was then aspirated, and the established spheroids taken into a H2/Pd-catalyst anaerobic chamber. Spheroids were washed three times with anoxia pre-equilibrated medium and left to settle for 1 h in a humidified 37°C incubator. Spheroids were removed from the anaerobic chamber after a 4 h drug exposure and washed three times with fresh culture medium. The growth of representative spheroids was monitored for 10 days using a published method of image analysis for volume determination ([Mao et al., 2018]). The remainder were enzymatically dissociated and plated at serial dilutions in 6-well plates containing 2 µM puromycin or 1 mg/ml geneticin for positive selection of POR-R and PORko-G cells, respectively. Colonies were visualized after 10 days of drug-free proliferation by staining with methylene blue (2 g/L in 50% aqueous ethanol) for 30 min. The number of colonies with at least 50 cells was manually counted to determine the plating efficiency. The surviving fraction was determined as the ratio of the plating efficiency of treated cells to that of the controls.
The spheroid ABM is described in further detail elsewhere ([Hong et al., 2018b]; [Mao et al., 2018]). The model employs two 3D grids and two solvers, a coarse grid represents the culture medium and is embedded with a much finer grid that represents the spheroid in a small cubic region at the bottom of the well. The spheroid grows in a specified volume and depth of unstirred medium containing dissolved oxygen. The geometry of the model is lattice-based, in which cells occupy cubic sites on a regular 3D lattice and grow in volume at a rate dependent on the local oxygen concentration. Autonomous cell mobility and cell-cell forces are not simulated. Cell motion occurs only as a result of cell division. Cells divide when the volume reaches a pre-set value (Vdiv) and the resultant daughter cell occupies an adjacent empty lattice site. […] The oxygen concentration at the air-medium boundary is defined by the gas phase of the culture environment. […] When oxygen concentrations fall below a critical level (<0.15 µM), cells are tagged to die and cytolysis occurs after a further 24 h leading to the central necrosis observed in in vitro spheroids. Spheroid ABM simulations were performed on a desktop Windows PC (Intel core I7 processor) from a Qt (Qt Company, https://www.qt.io/) graphical user interface passing parameters to a DLL built with Fortran95. The solution of the coarser grid provides the boundary conditions for the solution of the intracellular and extracellular concentrations within the spheroid lattice. Oxygen and drug are transported by diffusion from the boundary into the spheroid interior through the intercellular space in parallel with their uptake into cells. The model allows specification of two mass transfer constants to characterise the uptake (Kin) and efflux (Kout) rates for each compound. Prodrug metabolism is restricted to the intracellular compartment and dependent on the local oxygen concentration. […]

Row | Structure (SMILES) | IC50 (HCT-116 cell line panel) [µM] | k d S: kill probability rate constant in spheroid cultures [1] | Differential in anoxic sensitivity between PORko-G and POR-R spheroids ([1]; clonogenic endpoint, 4 h exposure, anoxia)
1 | CCN1CCN(C(=O)c2cc(N(CCBr)CCOS(C)(=O)=O)c(S(C)(=O)=O)cc2N)CC1 [CP-506M, 2-((4-amino-5-(4-ethylpiperazine-1-carbonyl)-2-(methylsulfonyl)phenyl)(2-bromoethyl)amino)ethyl methanesulfonate] | < 10 | 0.0256 | 
2 | CCN1CCN(C(=O)c2cc(N(CCBr)CCOS(C)(=O)=O)c(S(C)(=O)=O)cc2NO)CC1 [CP-506H, 2-((2-bromoethyl)(5-(4-ethylpiperazine-1-carbonyl)-4-(hydroxyamino)-2-(methylsulfonyl)phenyl)amino)ethyl methanesulfonate] | < 10 | 0.0256 | 
3 | CCN1CCN(C(=O)c2cc(N(CCCl)CCCl)c(S(C)(=O)=O)cc2N)CC1 [CP-506M-Cl2, (2-Amino-5-(bis(2-chloroethyl)amino)-4-(methylsulfonyl)phenyl)(4-ethylpiperazin-1-yl)methanone] | < 10 | 0.0256 | 
4 | CCN1CCN(C(=O)c2cc(N(CCBr)CCOS(C)(=O)=O)c(S(C)(=O)=O)cc2[N+](=O)[O-])CC1 [CP-506, 2-[(2-bromoethyl)-5-[(4-ethyl-1-piperazinyl)carbonyl]-2-(methylsulfonyl)-4-nitroanilino]ethyl methanesulfonate] |  | 0 | 22 fold and 20 fold
